# Laboratory results reported in ChEMBL document CHEMBL3232729, “Marsupellins A-F, ent-longipinane-type sesquiterpenoids from the Chinese liverwort Marsupella alpine with acetylcholinesterase inhibitory activity” (J Nat Prod, 2014).
# Target: Acetylcholinesterase (Homo sapiens) (UniProt P22303)
# Sequence (P22303 whole entry): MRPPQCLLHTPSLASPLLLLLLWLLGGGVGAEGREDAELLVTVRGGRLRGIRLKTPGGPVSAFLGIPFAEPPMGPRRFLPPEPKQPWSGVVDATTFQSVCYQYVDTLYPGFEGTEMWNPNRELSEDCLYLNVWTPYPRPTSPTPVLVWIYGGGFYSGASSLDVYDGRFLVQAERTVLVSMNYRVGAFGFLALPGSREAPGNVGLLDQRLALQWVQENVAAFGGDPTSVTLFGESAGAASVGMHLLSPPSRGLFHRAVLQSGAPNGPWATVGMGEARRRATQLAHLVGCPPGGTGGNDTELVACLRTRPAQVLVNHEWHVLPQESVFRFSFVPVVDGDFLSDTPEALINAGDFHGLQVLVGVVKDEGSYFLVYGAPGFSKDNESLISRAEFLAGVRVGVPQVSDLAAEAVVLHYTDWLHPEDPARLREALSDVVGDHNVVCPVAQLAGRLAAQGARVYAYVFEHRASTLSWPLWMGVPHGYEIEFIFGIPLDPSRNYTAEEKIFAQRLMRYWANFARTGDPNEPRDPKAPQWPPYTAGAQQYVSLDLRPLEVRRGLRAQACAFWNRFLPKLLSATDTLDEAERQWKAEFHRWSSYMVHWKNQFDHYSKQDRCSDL
# Description: Inhibition of AChE (unknown origin) assessed as minimum inhibitory concentration by bioautographic TLC assay
row,Structure (SMILES),MIC [µg]
1,C=C1[C@@H](O)[C@H](O)[C@H]2[C@H]3[C@@H]1C2(C)CCCC3(C)C,4
2,C[C@H]1[C@@H]2[C@@H]3[C@@H]4C[C@@]1(O)OC[C@@]24CCCC3(C)C,0.8
3,C[C@@H]1C(=O)C[C@H]2[C@H]3[C@@H]1C2(C)CCCC3(C)C,4
4,C=C1[C@H](O)C[C@H]2[C@H]3[C@@H]1C2(COC(C)=O)CCCC3(C)C,4
5,CC(=O)OC[C@]12CCCC(C)(C)[C@@H]3[C@H]1[C@]1(CO1)C(=O)C[C@@H]32,4
6,C=C1C(=O)C[C@H]2[C@H]3[C@@H]1C2(COC(C)=O)CCCC3(C)C,4
7,CC(=O)OC[C@]12CCCC(C)(C)[C@@H]3[C@H]1[C@@]1(CO1)C(=O)C[C@@H]32,4
8,C=C1OC(=O)C[C@H]2[C@H]3[C@@H]1[C@]2(COC(C)=O)CCCC3(C)C,4
9,C[C@H]1[C@@H]2[C@@H]3[C@@H]4C[C@@]1(O)OC(=O)[C@@]24CCCC3(C)C,0.6
